Measurements: publication PMC9268414, “Screening an In-House Isoquinoline Alkaloids Library for New Blockers of Voltage-Gated Na^+ Channels Using Voltage Sensor Fluorescent Probes: Hits and Biases” (Molecules, 2022)
Values joined by “and” are separate entries in the source; they are usually repeats but may differ in a detail not shown here. Identical values can stand only once. Like-named read-outs stand apart in the source and are kept apart here.

Key:
[1] = tested on: NaV channels endogenously expressed in GH3b6 cells; test: FRET voltage sensor probe (VSP) assay of BTX-induced depolarization in GH3b6 cells; assay type: cell-based, rat; conditions: GH3b6 cells; for Maximum of Inhibition of BTX-evoked VSP signal / IC50: BTX 1 µM, n = 6; for Maximum of Inhibition of BTX-evoked VSP signal: % printed only; for IC50: read-out: IC50 (µM), inhibition of BTX-evoked VSP signal; for Inhibitory Effects (%) on BTX-induced VSP signal (screening): IA at 10–50 µg/mL co-incubated with 1 µM BTX
human NaV1.3 channel = human NaV1.3 channel (Homo sapiens, UniProt Q9NY46); test: ANG-2 intracellular Na+ fluorescent assay in HEK293-hNaV1.3 cells; assay type: cell-based; conditions: IA at 10 µM; BTX 3 µM; HEK293-hNaV1.3; read-out: Inhibition of BTX-induced [Na+]i elevation (ANG-2 signal)
hNaV1.2 channel = target: T1, hNaV1.2 channel (Homo sapiens, UniProt Q99250); test: Automated patch-clamp, Na+ currents in HEK293-hNaV1.2 cells; assay type: cell-based
T1 construct: expressed in transfected cells
T1 sequence (Q99250 whole entry): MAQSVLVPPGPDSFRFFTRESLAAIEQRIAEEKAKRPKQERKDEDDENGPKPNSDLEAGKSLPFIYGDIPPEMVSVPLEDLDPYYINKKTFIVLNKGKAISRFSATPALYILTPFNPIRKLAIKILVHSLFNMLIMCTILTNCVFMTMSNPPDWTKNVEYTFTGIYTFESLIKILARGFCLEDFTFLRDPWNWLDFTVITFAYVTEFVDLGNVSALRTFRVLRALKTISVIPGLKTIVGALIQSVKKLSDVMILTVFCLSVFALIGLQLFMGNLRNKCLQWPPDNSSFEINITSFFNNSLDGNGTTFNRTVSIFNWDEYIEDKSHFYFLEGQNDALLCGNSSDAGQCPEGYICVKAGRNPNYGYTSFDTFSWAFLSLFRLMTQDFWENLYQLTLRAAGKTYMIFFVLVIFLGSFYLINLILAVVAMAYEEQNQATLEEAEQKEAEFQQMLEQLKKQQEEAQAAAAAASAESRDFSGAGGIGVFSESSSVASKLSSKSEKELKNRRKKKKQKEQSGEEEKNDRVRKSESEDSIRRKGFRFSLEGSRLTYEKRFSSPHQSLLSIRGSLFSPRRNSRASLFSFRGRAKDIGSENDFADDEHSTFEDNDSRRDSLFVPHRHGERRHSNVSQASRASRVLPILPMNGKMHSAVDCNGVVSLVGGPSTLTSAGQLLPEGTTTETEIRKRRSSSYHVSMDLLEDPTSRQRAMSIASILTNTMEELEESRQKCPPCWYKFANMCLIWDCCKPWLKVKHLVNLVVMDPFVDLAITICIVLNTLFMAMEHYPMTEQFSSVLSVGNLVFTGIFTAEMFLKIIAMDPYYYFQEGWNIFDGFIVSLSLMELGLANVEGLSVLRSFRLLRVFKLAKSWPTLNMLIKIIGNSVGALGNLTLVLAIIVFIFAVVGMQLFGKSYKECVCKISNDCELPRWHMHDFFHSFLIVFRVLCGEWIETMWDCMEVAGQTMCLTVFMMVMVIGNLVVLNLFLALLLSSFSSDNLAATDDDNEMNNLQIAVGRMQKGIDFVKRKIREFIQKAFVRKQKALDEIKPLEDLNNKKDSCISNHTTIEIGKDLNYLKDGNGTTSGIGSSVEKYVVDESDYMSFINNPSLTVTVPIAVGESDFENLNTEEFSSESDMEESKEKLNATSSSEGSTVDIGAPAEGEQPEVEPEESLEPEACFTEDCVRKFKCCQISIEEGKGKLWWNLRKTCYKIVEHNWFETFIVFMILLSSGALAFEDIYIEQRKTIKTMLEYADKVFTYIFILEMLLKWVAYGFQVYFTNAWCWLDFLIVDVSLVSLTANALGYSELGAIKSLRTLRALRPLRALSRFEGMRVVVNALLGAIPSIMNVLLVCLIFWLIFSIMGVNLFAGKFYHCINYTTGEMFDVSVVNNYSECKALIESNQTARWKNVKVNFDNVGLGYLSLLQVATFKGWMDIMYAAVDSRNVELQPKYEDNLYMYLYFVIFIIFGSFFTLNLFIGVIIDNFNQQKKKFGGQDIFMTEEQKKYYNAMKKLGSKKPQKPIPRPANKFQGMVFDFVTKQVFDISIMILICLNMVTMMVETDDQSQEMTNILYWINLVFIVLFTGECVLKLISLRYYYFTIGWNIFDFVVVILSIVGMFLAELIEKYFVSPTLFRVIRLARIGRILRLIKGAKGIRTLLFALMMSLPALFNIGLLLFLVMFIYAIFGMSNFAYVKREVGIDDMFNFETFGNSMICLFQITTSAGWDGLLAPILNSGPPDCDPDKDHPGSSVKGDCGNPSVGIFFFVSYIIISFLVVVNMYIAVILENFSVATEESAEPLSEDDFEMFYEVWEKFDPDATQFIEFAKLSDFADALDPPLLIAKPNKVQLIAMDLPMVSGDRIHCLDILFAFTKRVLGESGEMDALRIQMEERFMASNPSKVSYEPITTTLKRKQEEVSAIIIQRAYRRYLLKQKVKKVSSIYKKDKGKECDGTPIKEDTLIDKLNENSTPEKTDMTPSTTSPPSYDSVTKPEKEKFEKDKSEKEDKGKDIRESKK
Procedure: (§1) GH3b6 cells are a subclone of the GH3 pituitary cell line and were a generous gift from Dr. Françoise Macari (IGF, Montpellier, France). GH3b6 cells were cultivated from passage 14 until passage 32 at 37 °C/5% CO2 in Dubelcco’s Modified Eagle Medium (DMEM)/F12 (Lonza, Basel, Switzerland), supplemented with 10% FBS (Lonza, Basel, Switzerland), 1 mM L-glutamine, and 1 mM penicillin and streptomycin solution. For the fluorescence assay, the GH3b6 cells were seeded in black-walled, clear-bottom, 96-well, tissue culture-treated, and sterile imaging plates (Corning Hazebrouck, France), at a density of 10,000 cells per well, and incubated for 24 h before starting the experiment. The human Nav1.3 (hNav1.3) channel-expressing cell line (HEK293) used in this work was a generous gift from Massimo Mantegazza (IPMC, Nice, France). HEK293-hNaV1.3 cells were cultivated from passage 20 until passage 35 at 37 °C/5% CO2 in a DMEM high glucose medium (4.5 g/l), supplemented with 10% FBS, pyruvate, L-glutamine, and penicillin and streptomycin solution, each one at 1 mM, completed with 800 µg/mL geneticin G418. For the fluorescence assays, the cells were plated at a density of 50,000 cells per well in black-walled, clear-bottom, 96-well plates and then cultured at 37 °C and 5% CO2 for 24 h before the experiments. HEK293 stably expressing hNaV1.2 and hNaV1.6 were cultivated in the same conditions mentioned above for the HEK293-hNaV1.3 cells. For the automated patch-clamp experiments, cells were passaged from 24 to 48 h prior to the experiment and replated in the appropriate quantity to reach 50–70% confluence. For electrophysiological recordings, cells were detached with trypsin-EDTA and diluted in a culture medium. Then, the cells were centrifuged at 800 rpm for 4 min and resuspended (~300,000 cells/mL) in a patch-clamp extracellular solution.
(§2) Whole-cell recordings were used to investigate the effects of oxostephanine, liriodenine, thalmiculine, bebeerine, and protopine on HEK293 cells stably expressing the hNav1.2, hNav1.3, and hNav1.6 channels. Automated patch-clamp recordings were performed using the SyncroPatch 384PE from Nanion (München, Germany). Chips with a single hole (n = 384, series resistance 3.93 ± 1.19 MΩ) were used for HEK293 cell recordings. Pulse generation and data collection were performed with the PatchControl384 v1.9.7 software (Nanion) and the Biomek interface (Beckman Coulter). Whole-cell recordings were conducted according to the recommended procedures of Nanion. The cells were stored in a cell hotel reservoir at 10 °C, with a shaking speed of 60 RPM. After initiating the experiment, cell catch, sealing, whole-cell formation, liquid application, recording, and data acquisition were all performed sequentially and automatically. The intracellular solution contained (in mM): 10 CsCl, 110 CsF, 10 NaCl, 10 EGTA, and 10 HEPES (pH 7.2, osmolarity 280 mOsm), and the extracellular solution contained (in mM): 60 NMDG, 80 NaCl, 4 KCl, 2 CaCl2, 1 MgCl2, 5 Glucose, and 10 HEPES (pH 7.4 (NaOH), osmolarity 280 ± 3 mOsm). Whole-cell experiments were performed at a holding potential of −100 mV at room temperature (18–22 °C). Currents were sampled at 20 kHz. For pharmacological assays, alkaloid solutions were prepared at 30 µM in the extracellular solution supplemented with 0.3% bovine serum albumin and distributed in 384-well compound plates according to a pre-established plate plan. This distribution within compound plates could not be randomized since it would then excessively complexify the methods of analyses. The working compound solution was diluted 3 times in the patch-clamp recording well by adding from 30 to 60 µL of the external solution to reach the final reported concentration and the test volume of 90 µL. The effects of IA (10 µM) or of BTX (1 µM) were measured at the end of a 10 min application time. Activation curves were built by depolarizations lasting for 2000 ms, from −130 mV to 40 mV, using 5 mV increment steps. […]

hNaV1.3 channel = target: T2, hNaV1.3 channel (Homo sapiens, UniProt Q9NY46); test: Automated patch-clamp, Na+ currents in HEK293-hNaV1.3 cells; assay type: cell-based
T2 construct: expressed in transfected cells
Procedure: as §1, §2

hNaV1.6 channel = target: T3, hNaV1.6 channel (Homo sapiens, UniProt Q9UQD0); test: Automated patch-clamp, Na+ currents in HEK293-hNaV1.6 cells; assay type: cell-based
T3 construct: expressed in transfected cells
T3 sequence (Q9UQD0 whole entry): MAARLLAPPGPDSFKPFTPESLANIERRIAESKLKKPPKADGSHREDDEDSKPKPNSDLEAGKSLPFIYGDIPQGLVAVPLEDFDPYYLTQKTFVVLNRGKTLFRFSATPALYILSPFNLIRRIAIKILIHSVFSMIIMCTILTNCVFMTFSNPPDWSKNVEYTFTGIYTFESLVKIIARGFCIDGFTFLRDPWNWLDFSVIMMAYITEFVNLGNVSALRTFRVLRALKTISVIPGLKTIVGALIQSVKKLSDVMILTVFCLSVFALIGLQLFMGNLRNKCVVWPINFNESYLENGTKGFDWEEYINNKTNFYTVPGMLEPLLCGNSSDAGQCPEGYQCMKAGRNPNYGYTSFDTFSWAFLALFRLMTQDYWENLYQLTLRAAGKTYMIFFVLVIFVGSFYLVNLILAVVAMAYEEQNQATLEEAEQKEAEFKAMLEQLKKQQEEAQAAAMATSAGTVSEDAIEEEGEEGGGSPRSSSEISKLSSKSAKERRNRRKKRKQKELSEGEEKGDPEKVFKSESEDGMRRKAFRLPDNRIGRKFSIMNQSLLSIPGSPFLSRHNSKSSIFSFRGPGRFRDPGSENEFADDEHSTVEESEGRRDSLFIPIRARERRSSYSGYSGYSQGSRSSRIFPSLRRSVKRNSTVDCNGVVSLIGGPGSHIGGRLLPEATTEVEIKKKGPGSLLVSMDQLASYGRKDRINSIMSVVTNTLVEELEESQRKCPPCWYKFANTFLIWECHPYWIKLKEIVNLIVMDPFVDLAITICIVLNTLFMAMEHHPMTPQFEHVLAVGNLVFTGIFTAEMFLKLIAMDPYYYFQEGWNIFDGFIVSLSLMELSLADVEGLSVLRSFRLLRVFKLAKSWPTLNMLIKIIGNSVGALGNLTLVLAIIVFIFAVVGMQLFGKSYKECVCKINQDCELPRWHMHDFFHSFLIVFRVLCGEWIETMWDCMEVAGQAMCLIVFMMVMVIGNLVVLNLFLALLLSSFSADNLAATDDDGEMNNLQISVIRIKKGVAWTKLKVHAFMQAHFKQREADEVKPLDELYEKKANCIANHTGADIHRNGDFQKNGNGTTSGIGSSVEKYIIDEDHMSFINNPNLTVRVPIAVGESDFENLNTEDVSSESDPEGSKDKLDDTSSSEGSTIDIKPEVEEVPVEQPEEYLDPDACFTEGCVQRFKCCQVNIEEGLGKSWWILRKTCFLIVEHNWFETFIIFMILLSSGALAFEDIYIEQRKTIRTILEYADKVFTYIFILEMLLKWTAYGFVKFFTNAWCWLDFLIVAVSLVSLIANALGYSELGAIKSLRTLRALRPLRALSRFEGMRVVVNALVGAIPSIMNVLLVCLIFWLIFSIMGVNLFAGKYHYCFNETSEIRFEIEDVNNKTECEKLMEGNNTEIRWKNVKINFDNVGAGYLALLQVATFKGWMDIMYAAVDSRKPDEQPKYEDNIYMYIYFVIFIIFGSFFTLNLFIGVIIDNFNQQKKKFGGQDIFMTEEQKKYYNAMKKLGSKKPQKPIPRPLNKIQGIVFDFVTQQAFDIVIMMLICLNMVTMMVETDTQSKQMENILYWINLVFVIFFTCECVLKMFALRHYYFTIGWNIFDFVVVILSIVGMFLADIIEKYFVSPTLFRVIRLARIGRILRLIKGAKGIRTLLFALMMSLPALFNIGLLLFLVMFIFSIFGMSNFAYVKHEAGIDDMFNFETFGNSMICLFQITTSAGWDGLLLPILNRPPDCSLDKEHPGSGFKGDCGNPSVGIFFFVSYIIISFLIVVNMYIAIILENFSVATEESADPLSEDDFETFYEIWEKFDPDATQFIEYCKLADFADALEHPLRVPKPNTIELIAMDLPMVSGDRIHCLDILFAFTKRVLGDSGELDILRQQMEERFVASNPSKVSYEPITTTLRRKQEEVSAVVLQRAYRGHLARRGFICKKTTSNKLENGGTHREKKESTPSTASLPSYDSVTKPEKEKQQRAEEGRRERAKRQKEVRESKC
Procedure: as §1, §2

[2] = 10 µM, Vm between −20 mV and 30 mV

## COc1cccc2c1C(=O)c1nccc3cc4c(c-2c13)OCO4 [IA14, oxostephanine]
[1]
  Maximum of Inhibition of BTX-evoked VSP signal: 95.78 ± 6.99%
  IC50: 6.11 ± 0.09 µM
  Inhibitory Effects (%) on BTX-induced VSP signal (screening): 84.4%
[1]; listed as Oxostephanine
  IC50: 5 to 6 µM
[1]; listed as IA24
  Inhibitory Effects (%) on BTX-induced VSP signal (screening): 80.5%
Human NaV1.3 channel
  inhibition at 10 µM: 43 ± 12%
hNaV1.2 channel; 10 µM, HEK293-hNaV1.2
  Effect on Na+ currents elicited by hNaV1.2: no effects
hNaV1.2 channel; hNaV1.2, 10 µM
  Change in V1/2 of activation and inactivation vs control: ns
hNaV1.3 channel; 10 µM IA in the presence of 1 µM BTX
  Effect on current densities of hNaV1.3 at −60 mV: significantly decreased
hNaV1.3 channel; 10 µM IA, BTX 1 µM, hNaV1.3
  Effect on slow-down of inactivation induced by BTX (AUC): significantly decreased
hNaV1.3 channel; 10 µM, HEK293-hNaV1.3, without BTX
  Effect on Na+ currents elicited by hNaV1.3: no effects
hNaV1.3 channel; hNaV1.3, 10 µM
  Change in V1/2 of activation and inactivation vs control: ns
hNaV1.6 channel; 10 µM, HEK293-hNaV1.6
  Effect on Na+ currents elicited by hNaV1.6: no effects
hNaV1.6 channel; hNaV1.6, 10 µM
  Change in V1/2 of activation and inactivation vs control: ns

## gyrocarpusine [IA42]
[1]
  Inhibitory Effects (%) on BTX-induced VSP signal (screening): 78.5%

## COc1cc2c3cc1Oc1cc(ccc1O)CC1c4c(cc(OC)c(O)c4Oc4ccc(cc4)CC3N(C)CC2)CCN1C (stereo not shown) [IA52, bebeerine]
[1]
  Maximum of Inhibition of BTX-evoked VSP signal: 41.04 ± 3.44%
  IC50: 0.74 ± 0.11 µM
  Inhibitory Effects (%) on BTX-induced VSP signal (screening): 81.9%
Human NaV1.3 channel
  inhibition at 10 µM: 18 ± 2%
hNaV1.2 channel; [2]
  inhibition at 10 µM: 42 to 50%
hNaV1.2 channel; estimated from inhibition at 10 µM, read-out: IC50 on Na+ currents elicited by hNaV1.2
  IC50: < 10 µM and > 10 µM
hNaV1.2 channel; hNaV1.2, 10 µM
  Change in V1/2 of activation and inactivation vs control: no significant change
hNaV1.2 channel; hNaV1.2, 10 µM bebeerine
  Activation Slope (±SEM): 5.8 ± 0.3 ^1
  Activation V1/2 (±SEM, mV): −29.1 ± 1.1 (n = 36) mV
  Inactivation Slope (±SEM): −8.5 ± 0.3 ^4
  Inactivation V1/2 (±SEM, mV): −62.3 ± 1.1 (n = 21) mV
hNaV1.3 channel; [2]
  inhibition at 10 µM: 60 to 64%
hNaV1.3 channel; 10 µM, at −15 mV
  inhibition at 10 µM: 64 ± 4%
hNaV1.3 channel; hNaV1.3, 10 µM
  Shift in V1/2 activation vs control: −3.6 ± 1.0
hNaV1.3 channel; hNaV1.3, 10 µM bebeerine
  Activation Slope (±SEM): 6.4 ± 0.3 ^2
  Activation V1/2 (±SEM, mV): −26.9 ± 0.7 (n = 51) mV
  Inactivation Slope (±SEM): −8.9 ± 0.3 ^5
  Inactivation V1/2 (±SEM, mV): −60.2 ± 0.9 (n = 26) mV
hNaV1.6 channel; [2]
  inhibition at 10 µM: 70 to 74%
hNaV1.6 channel; 10 µM, at −20 mV
  inhibition at 10 µM: 74 ± 3%
hNaV1.6 channel; estimated from inhibition at 10 µM, read-out: IC50 on Na+ currents elicited by hNaV1.6
  IC50: < 10 µM and > 10 µM
hNaV1.6 channel; hNaV1.6, 10 µM
  Change in V1/2 of activation and inactivation vs control: no significant change
hNaV1.6 channel; hNaV1.6, 10 µM bebeerine
  Activation Slope (±SEM): 7.0 ± 0.3 ^3
  Activation V1/2 (±SEM, mV): −22.1 ± 0.7 (n = 32) mV
  Inactivation Slope (±SEM): −9.0 ± 0.3 ^6
  Inactivation V1/2 (±SEM, mV): −60.2 ± 0.7 (n = 24) mV

## COc1ccc2cc1Oc1ccc(cc1)C[C@H]1c3cc(c(OC)cc3CCN1C)Oc1c(OC)c(OC)cc3c1[C@H](C2)N(C)CC3 [IA50, tetrandine]
[1]
  Inhibitory Effects (%) on BTX-induced VSP signal (screening): 78.3%

## COc1ccc2cc1-c1cc(ccc1O)C[C@H]1c3cc4c(cc3CCN1C)Oc1c(OC)cc3c(c1O4)[C@H](C2)N(C)CC3 [IA31, tiliacorinine]
[1]
  Inhibitory Effects (%) on BTX-induced VSP signal (screening): 92.8%
